Experimental findings from US20140093498A1, “PHARMACEUTICAL COMBINATIONS COMPRISING DUAL ANGIOPOIETIN-2 / DLL4 BINDERS AND ANTI-VEGF-R AGENTS” (BOEHRINGER INGELHEIM INTERNATIONAL GMBH, priority 2012, published 2014) are described below.

Data set [1] deals with renal cancer (RXF 1220). The data set is described as follows: RXF 1220 patient-derived tumor xenograft growth in nude mice. Conditions: BI-1 13.6 mg/kg i.p. twice weekly, Sunitinib 40 mg/kg once daily, Bevacizumab 15 mg/kg i.p. twice weekly. Format: in vivo. From the text: (§1) The goal of the present study was to assess the efficacy of BI-1 in combination with Bevacizumab, BIBF1120 or Sunitinib in models of human non small cell lung cancer (LXFE 211, LXFE 1422), colon cancer (CXF 243), mammary cancer (MAXF 401), ovarian cancer (OVXF 1353), pancreatic cancer (PAXF 546) and renal cancer (RXF 1220) in nude mice. All models were patient-derived tumor xenografts (PDX), which were transplanted from patients to nude mice and passaged subcutaneously. These models retain most of the characteristics of the parental patient tumors including histology.
(§2) BI-1 with the sample ID number D11B20V503 was used for this experiment and diluted with PBS. BIBF1120 with the batch chiffre 133562 was suspended in Natrosol 0.5% (Hydroxyethylcellulose Natrosol 250 HX, VWR). […]
(§3) Tumor fragments were obtained from tumor xenografts in serial passage in nude mice. […] Mice were monitored daily. […]
(§4) The doses of BI-1 and Bevacizumab were calculated to the average body weight of all mice on day 1 (28 g) and administered intraperitoneally twice weekly in a volume of 100 μl per mouse. […]
(§5) Tumor diameters were measured twice weekly with a caliper. The volume of each tumor [in mm^3] was calculated according to the formula “tumor volume=length*diameter^2*0.5.” To monitor side effects of treatment, mice were inspected daily for abnormalities and body weight was determined twice weekly. […]
In general terms: Xenograft models place foreign cells or tissue in a host animal.

The subject of data set [2] is mammary cancer (MAXF 401). The data set is described as follows: MAXF 401 patient-derived tumor xenograft growth in nude mice. The class given is in vivo. Conditions: BI-1 13.6 mg/kg i.p. twice weekly, BIBF1120 50 mg/kg p.o. once daily, Bevacizumab 15 mg/kg i.p. twice weekly.
Text: as §1, §2, §3, §4, §5

The subject of data set [3] is human non small cell lung cancer (LXFE 211). Description: LXFE 211 patient-derived tumor xenograft growth in nude mice. The class given is in vivo. Conditions: BI-1 13.6 mg/kg i.p. twice weekly, BIBF1120 50 mg/kg p.o. once daily, Bevacizumab 15 mg/kg i.p. twice weekly.
Text: as §1, §2, §3, §4, §5

The test system of data set [4] is human non-small cell lung cancer (NCI-H1975). Description: Subcutaneous NCI-H1975 xenograft tumor growth in nude mice. Format: in vivo. Conditions: day 14, 2.5 cycles; Bevacizumab 25 mg/kg i.p. twice weekly, BIBF 1120 50 mg/kg p.o. daily, BI-1 13.6 mg/kg i.p. twice weekly.
Text: The goal of the present study was to assess the efficacy of BI-1 in combination with Bevacizumab and BIBF 1120 in a model of human non small cell lung cancer (NCI-H1975) in nude mice.
• Model: Subcutaneous xenografts of the human non-small cell lung cancer (NCI-H1975) growing in nude mice
BI-1 with the sample ID number D11B20V503 was used for this experiment and diluted with PBS. BIBF 1120 with the batch chiffre 133562 was suspended in Natrosol 0.5% (Hydroxyethylcellulose Natrosol 250 HX, VWR).
Avastin® (Bevacizumab, 25 mg/ml) was purchased from Roche (Basel, Switzerland), (dissolved in 0.9% saline) was diluted with 0.9% saline.
Mice were 7 week-old female BomTac:NMRI-Foxn1nu purchased from Taconic, Denmark. After arrival, mice were allowed to adjust to ambient conditions for at least 5 days before they were used for the experiments. […]
as §4
Tumor diameters were measured three times a week (Monday, Wednesday and Friday) with a caliper. The volume of each tumor [in mm3] was calculated according to the formula “tumor volume=length*diameter2*π/6.” To monitor side effects of treatment, mice were inspected daily for abnormalities and body weight was determined three times a week (Monday, Wednesday and Friday). […]

Data set [5] has as its system pancreatic cancer (PAXF 546). Description: PAXF 546 patient-derived tumor xenograft growth in nude mice. Format: in vivo. Conditions: BI-1 13.6 mg/kg i.p. twice weekly, BIBF1120 50 mg/kg p.o. once daily, Bevacizumab 15 mg/kg i.p. twice weekly.
Text: as §1, §2, §3, §4, §5

A short description of data set [6]: Body weight losses and deaths in PDX tumor-bearing mice. Details: species or system nude mice. Conditions: mouse, in vivo. As for the experimental part: Tumor diameters were measured twice weekly with a caliper. The volume of each tumor [in mm^3] was calculated according to the formula “tumor volume=length*diameter^2*0.5.” To monitor side effects of treatment, mice were inspected daily for abnormalities and body weight was determined twice weekly. Animals with tumor sizes exceeding 1.5 cm in diameter or 20% body weight loss were euthanized for ethical reasons.

Data set [7] deals with human non small cell lung cancer (LXFE 1422). The data set is described as follows: LXFE 1422 patient-derived tumor xenograft growth in nude mice. Conditions: BI-1 13.6 mg/kg i.p. twice weekly, BIBF1120 50 mg/kg p.o. once daily, Bevacizumab 15 mg/kg i.p. twice weekly. The class given is in vivo.
Text: as §1, §2, §3, §4, §5

For data set [8], the system named is colon cancer (CXF 243). Description: CXF 243 patient-derived tumor xenograft growth in nude mice. Format: in vivo. Conditions: BI-1 13.6 mg/kg i.p. twice weekly, BIBF1120 50 mg/kg p.o. once daily, Bevacizumab 15 mg/kg i.p. twice weekly.
Text: as §1, §2, §3, §4, §5

The test system of data set [9] is ovarian cancer (OVXF 1353). The data set is described as follows: OVXF 1353 patient-derived tumor xenograft growth in nude mice. Format: in vivo. Conditions: BI-1 13.6 mg/kg i.p. twice weekly, BIBF1120 50 mg/kg p.o. once daily.
Text: as §1, §2, §3, §4, §5

As for `CCN(CC)CCNC(=O)c1c(C)[nH]c(/C=C2\C(=O)Nc3ccc(F)cc32)c1C` [Sunitinib], the “TGI [%]” value in [1] is given as 62%.
As for “Bevacizumab: VEGF-neutralizing antibody A4.6.1, also called bevacizumab (Avastin®)”, the “TGI [%]” value in [2] is given as 68%; in data set [3] it was 37%; in data set [5], 59%; in data set [7], 63%. The “median TGI” value in data set [4] amounted to 82%. Further, in [6], the “maximum median body weight loss” value turned out to be 9.1%.
Take `CCS(=O)(=O)O.COC(=O)c1ccc2c(c1)NC(=O)/C2=C(\Nc1ccc(N(C)C(=O)CN2CCN(C)CC2)cc1)c1ccccc1` [BIBF1120, 3-Z-[1-(4-(N-((4-methyl-piperazin-1-yl)-methylcarbonyl)-N-methyl-amino)-anilino)-1-phenyl-methylen]-6-methoxycarbonyl-2-indolinon-monoethanesulfonate]: the “TGI [%]” value in [2] is given as 63%; in [3], 40%; in data set [8] it was 65%; in data set [9] it was 78%; in data set [5], 69%; in data set [7], 57%. For the same molecule, the “median TGI” value in [4] worked out at 75%. Further, the “maximum median body weight loss” value in data set [6] amounted to 5.9%.
